According to patent US6462064B1, “Apoptosis inducing adamantyl derivatives and their usage as anti-cancer agents, especially for cervical cancers and dysplasias” (Galderma Research & Development S.N.C., priority 1996, dated 2002):
Entries after “also recorded” stand apart in the source; their conditions may differ.

Assays:
[1] = tested on: human cervical cancer cell lines (C33A cells and Caski cells); experiment: Proliferation of human cervical cancer cell lines (Example 33, FIG. 7); type: cell-based
Description: Another experiment was also conducted to compare the effect of three different retinoid compounds according to the invention, i.e., 6-[3-(1-adamantyl)-4-methoxyphenyl]-2-naphthoic acid, 2-[3-(1-adamantyl)-4-methoxyphenyl]-5-benzimidazole carboxylic acid, and 6-[3-(1-adamantyl)-4,5-methylenedioxyphenyl]-2-naphthoic acid, a control (DMSO), and a control retinoid (all-trans retinoic acid) on the proliferation of several human cervical cancer cell lines (C33A cells and Caski cells).

[2] = tested on: human cervical cancer cell lines Caski and C33A; experiment: Proliferation assay on cervical cancer cell lines (Example 32, FIG. 6); type: cell-based
Description: Two human cervical cancer cell lines, the Caski and C33A (which contains integrated human papillomavirus sequences) were treated with adapalene at concentrations of 1, 2 and 10 μM for 24, 48 and 96 hours or with tretinoin as a control. Afterward, human cervical cancer cells, which had been treated for […] or 48 hours, were then washed and incubated in a medium lacking adapalene.
After a total incubation time of 96 hours, a proliferation assay was performed to assess the extent of inhibition of proliferation or cell killing. […] The EC50 (concentration of adapalene that provides for 50% inhibition of cell proliferation) for the tested human cervical cancer cell lines was estimated to be approximately 5 μM.

[3] = tested on: Cervical Intraepithelial Neoplasia Level II or III; experiment: Phase I/II clinical study, aqueous adapalene gel with cervical cap and collagen sponge; type: in vivo, human; settings: for CIN Resolved / Improved to CIN I / Overall Response / Overall “cure” / Improved from CIN III to CIN II: Table II
Text: Level I corresponds to mild cervical dysplasia, II to moderate dysplasia, and III to severe dysplasia, and carcinoma in situ.
A clinical study was designed and approved where an aqueous adapalene gel was delivered with a cervical cap and a collagen sponge in patients with advanced cervical dysplasia (CIN II and CIN III). Inclusion criteria for enrollment included a biopsy proving diagnosis of CIN II or CIN III. Forty-nine patients received the drug and completed the study.

cancer cells = experiment: List of active compounds: types of cancers and precancers active against; type: cell-based
Text: As discussed, the adamantyl retinoid derivatives according to the invention which induce apoptosis are useful for treating many different types of cancers.

[4] = tested on: cervical cancer cell lines; experiment: Apoptosis, cellular DNA fragmentation ELISA (FIG. 8); type: cell-based, human; settings: eighteen hours; adapalene 1, 5 and 10 μM, tRA 10 μM, ceramide 0.5 mM
Description: In this experiment cells were labeled with BrdU for six hours. After labeling, cells were treated with vehicle (DM50), or with 10 μM tRA, 0.5 mM ceramide or doses of adapalene of 1, 5 and 10 μM for eighteen hours. Apoptosis was measured using a cellular DNA fragmentation ELISA kit (available from Boehringer). […] Therein, one unit represents the value obtained from cells grown in the presence of vehicle alone.

[5] = tested on: various human cancer cell lines; experiment: Anti-cancer activity against human cancer cell lines over a concentration range (FIGS. 2-4); type: cell-based; settings: retinoid concentrations 10^−9 M to 10^−5 M
Text: FIG. 2 compares the activity of selected adamantyl retinoids according to the invention and all-trans-retinoic acid against a human non-small lung carcinoma cell line.
FIG. 3 compares the activity of selected adamantyl retinoids according to the invention and all-trans-retinoic acid against human prostate adenocarcinoma, human metastatic prostate adenocarcinoma, and human prostate carcinoma cell lines.
FIG. 4 compares the activity of selected adamantyl retinoids according to the invention and all-trans-retinoic acid against a human liver cancer cell line.

[6] = tested on: human pancreatic cancer BxPC-3 tumor cells; experiment: Human xenograft mouse animal model, pancreatic cancer BxPC-3; type: in vivo; settings: 80 mg/kg intraperitoneally, starting 28 days after inoculation; compared to vehicle control group; FIG. 5
Description: The anti cancer activity of a compound according to the invention, 6-[3-(1-adamantyl)-4,5-methylenedioxyphenyl]-2-naphthoic acid was also evaluated in a human xenograft mouse animal model containing human pancreatic cancer BxPC-3 tumor cells. Starting twenty-eight days after inoculation of tumor cells, said xenograft containing mice were administered the retinoid compound intraperitoneally at a dosage of 80 mg/kg body weight. Also, a control group of said mice was inoculated under similar conditions with the pharmaceutical vehicle used for formulation (but lacking the retinoid compound).

[7] = tested on: panel of human tumor cell lines; experiment: Cell-based high throughput screening assays, percentage of surviving cells; settings: active = percentage survival of less than 80; FIG. 1
Description: The anti-cancer activity of various adamantyl retinoid compounds according to the invention was compared to all-trans-retinoic acid using cell-based high throughput screening assays. Specifically, the following compounds were tested in such assays: all-trans-retinoic acid, 6[3(1-adamantyl)-4-methoxyphenyl]-2-naphthoic acid, 2-[3-(1-adamantyl)-4-methoxyphenyl]-5-benzimidazole carboxylic acid, 6-[3-(1-adamantyl)-4-hydroxy-5-methoxyphenyl]-2-naphthoic acid, 6-[3-(1-adamantyl)-4-acetoxymethylphenyl]-2-naphthoic acid and 6-[3-(1-adamantyl)-4,5-methylenedioxyphenyl]-2-naphthoic acid.
These compounds were tested against a panel of human tumor cell lines having a variety of tissue origins, and having distinct tumor characteristics. The tumor cell cultures were exposed to the above retinoid compounds for a specific duration. After such exposure, the percentage of surviving cells was then measured using standard assays.

[8] = length of treatment 4 days (n = 2), patients (percent)
[9] = length of treatment 8 days (n = 23), patients (percent)
[10] = length of treatment 14 days (n = 24), patients (percent)

SMILES: COc1ccc(-c2ccc3cc(C(=O)O)ccc3c2)cc1C12CC3CC(CC(C3)C1)C2 [Compound 1, 6-[3-(1-adamantyl)-4-methoxyphenyl]-2-naphthoic acid]
- effect on proliferation of human cervical cell lines [1]: strong inhibitory effect
- inhibition of proliferation of cervical cancer cell lines ([2]; 1, 2 and 10 μM for 24, 48 and 96 hours): inhibit the proliferation of cervical cancer cell lines in a dose-dependent manner
- EC50 ([2]; Homo sapiens, total incubation time 96 hours, estimated, read-out: EC50 (concentration that provides for 50% inhibition of cell proliferation)): ~5 µM
- effect of incubation longer than 24 hours on proliferation ([2]; increase between 48 and 96 hours not statistically significant (p>0.05)): only a marginal effect on proliferation
- concentration at which maximum inhibition of cell proliferation occurred ([2]; tested at 1, 2 and 10 μM): 10 µM
- Response: Complete ([3]; 4 days, CIN II (n = 0)): 0(0.0)
- Response: Overall ([3]; 4 days, CIN II (n = 0)): 0(0.0)
- Response: Partial ([3]; 4 days, CIN II (n = 0)): 0(0.0)
- Response: Progression ([3]; 4 days, CIN II (n = 0)): 0(0.0)
- Response: Stable ([3]; 4 days, CIN II (n = 0)): 0(0.0)
- Response: Complete ([3]; 4 days, CIN III/CIS (n = 2)): 0(0.0)
- Response: Overall ([3]; 4 days, CIN III/CIS (n = 2)): 0(0.0)
- Response: Partial ([3]; 4 days, CIN III/CIS (n = 2)): 0(0.0)
- Response: Progression ([3]; 4 days, CIN III/CIS (n = 2)): 0(0.0)
- Response: Stable ([3]; 4 days, CIN III/CIS (n = 2)): 2(100.0)
- Response: Complete ([3]; 8 days, CIN II (n = 12)): 4(33.3)
- Response: Overall ([3]; 8 days, CIN II (n = 12)): 8(66.7)
- Response: Partial ([3]; 8 days, CIN II (n = 12)): 4(33.3)
- Response: Progression ([3]; 8 days, CIN II (n = 12)): 0(0.0)
- Response: Stable ([3]; 8 days, CIN II (n = 12)): 4(33.3)
- Response: Complete ([3]; 8 days, CIN III/CIS (n = 11)): 3(27.3)
- Response: Overall ([3]; 8 days, CIN III/CIS (n = 11)): 6(54.5)
- Response: Partial ([3]; 8 days, CIN III/CIS (n = 11)): 3(27.3)
- Response: Progression ([3]; 8 days, CIN III/CIS (n = 11)): 0(0.0)
- Response: Stable ([3]; 8 days, CIN III/CIS (n = 11)): 5(45.4)
- Response: Complete ([3]; 14 days, CIN II (n = 14)): 3(21.4)
- Response: Overall ([3]; 14 days, CIN II (n = 14)): 6(42.9)
- Response: Partial ([3]; 14 days, CIN II (n = 14)): 3(21.4)
- Response: Progression ([3]; 14 days, CIN II (n = 14)): 0(0.0)
- Response: Stable ([3]; 14 days, CIN II (n = 14)): 8(57.1)
- Response: Complete ([3]; 14 days, CIN III/CIS (n = 10)): 2(20.0)
- Response: Overall ([3]; 14 days, CIN III/CIS (n = 10)): 3(30.0)
- Response: Partial ([3]; 14 days, CIN III/CIS (n = 10)): 1(10.0)
- Response: Progression ([3]; 14 days, CIN III/CIS (n = 10)): 0(0.0)
- Response: Stable ([3]; 14 days, CIN III/CIS (n = 10)): 7(70.0)
- CIN Resolved ([3]; CIN II, N = 27): 30%
- Improved to CIN I ([3]; CIN II, N = 27): 22%
- Overall Response ([3]; CIN II, N = 27): 52%
- Overall “cure” ([3]; CIN II, N = 27): 52%
- CIN Resolved ([3]; CIN III, N = 21): 24%
- Improved from CIN III to CIN II ([3]; CIN III, N = 21): 29%
- Improved to CIN I ([3]; CIN III, N = 21): 19%
- Overall Response ([3]; CIN III, N = 21): 72%
- Overall “cure” ([3]; CIN III, N = 21): 43%
- CIN Resolved ([3]; Total, N = 48): 27%
- Improved from CIN III to CIN II ([3]; Total, N = 48): 13%
- Improved to CIN I ([3]; Total, N = 48): 21%
- Overall Response ([3]; Total, N = 48): 61%
- Overall “cure” ([3]; Total, N = 48): 48%
- response rates versus length of treatment ([3]; eight to fourteen days): did not increase
- patients with complete response ([3]; human, in vivo): Twelve
- patients with partial response (regressed to CIN I) ([3]; human, in vivo): eleven
- patients with stable disease with no progression ([3]; human, in vivo): Twenty-six
- Response: Complete [3, 8]: 0(0.0)
- Response: Overall [3, 8]: 0(0.0)
- Response: Partial [3, 8]: 0(0.0)
- Response: Progression [3, 8]: 0(0.0)
- Response: Stable [3, 8]: 2(100.0)
- Response: Complete [3, 9]: 7(30.4)
- Response: Overall [3, 9]: 14(60.8)
- Response: Partial [3, 9]: 7(30.4)
- Response: Progression [3, 9]: 0(0.0)
- Response: Stable [3, 9]: 9(39.1)
- Response: Complete [3, 10]: 5(20.8)
- Response: Overall [3, 10]: 9(37.5)
- Response: Partial [3, 10]: 4(16.7)
- Response: Progression [3, 10]: 0(0.0)
- Response: Stable [3, 10]: 15(62.5)
- overall response rate (partial plus complete) ([3]; ninety days after treatment, 47 patients, eight day or fourteen day treatment): 48.7%
- adverse effects ([3]; no patient withdrawn because of an adverse event): all averse effects reported were mild
- highest overall response rate ([3]; patients treated for eight days): 60.8%
- response ([3]; two patients, four day treatment): no response
- Types of Cancers and Precancers Active Against (cancer cells): brain, cervical (including, e.g.,; also recorded: cervical intraepithelial neoplasia; also recorded: I, II, III), head and neck, leu-; also recorded: kemia, lymphoma, prostate, skin
- induction of apoptosis [4]: comparable to that of cells incubated with ceramide

SMILES: O=C(O)c1ccc2cc(-c3cc4c(c(C56CC7CC(CC(C7)C5)C6)c3)OCO4)ccc2c1 [Compound 6, 6-[3-(1-adamantyl)-4,5-methylenedioxyphenyl]-2-naphthoic acid]
- anti-cancer activity [5]: significant anti-cancer activity
- tumor size [6]: substantial reduction in tumor size
- effect on proliferation of human cervical cell lines [1]: strong inhibitory effect
- Types of Cancers and Precancers Active Against (cancer cells): brain, breast, head and neck,; also recorded: kidney, leukemia, lung, lym-; also recorded: phoma, myeloma, ovarian,; also recorded: prostate, skin, liver, cervical; also recorded: (including, e.g., cervical; also recorded: intraepithelial neoplasia I, II,; also recorded: III),

SMILES: CC1=C(/C=C/C(C)=C/C=C/C(C)=C/C(=O)O)C(C)(C)CCC1 [all-trans-retinoic acid, reference compound]
- anti-cancer activity [5]: did not exhibit similar activity
- activity against human cancers (percentage of surviving cells) [7]: did not give comparable results
- effect on proliferation of human cervical cell lines [1]: no significant effect on cell proliferation
- induction of apoptosis [4]: did not induce apoptosis significantly
